Values of other authors in patent US11452694B2, “High concentration dosage forms of pridopidine” (PRILENIA NEUROTHERAPEUTICS LTD., priority 2017, dated 2022).

System: neuroblastoma cell line
Conditions: SIR-dependent manner

Structure (SMILES): CCCN1CCC(c2cccc(S(C)(=O)=O)c2)CC1 [Pridopidine, 4-(3-(Methylsulfonyl)phenyl)-1-propylpiperidine]
- secretion of brain-derived neurotrophic factor (BDNF): enhance secretion
